Experimental data from BigSolDB 2.1.

O=C([O-])c1ccccc1.[K+]
solubility (mole fraction)
Conditions | in DMAc | in DMF | in ethanol | in formamide | in isobutanol | in isopropanol | in methanol | in n-butanol | in n-pentanol | in n-propanol
282.95 K | 0.000243 | 0.000325 | 0.00133 | 0.0439 | 0.000248 | 0.000225 | 0.0144 | 0.000586 | 0.000517 | 0.000735
287.95 K | 0.000263 | 0.000372 | 0.00143 | 0.0444 | 0.000284 | 0.000256 | 0.0148 | 0.000617 | 0.000604 | 0.000781
293.25 K | 0.000287 | 0.000426 | 0.00157 | 0.045 | 0.000325 | 0.000286 | 0.0153 | 0.000646 | 0.000693 | 0.000841
298.25 K | 0.000309 | 0.000502 | 0.00168 | 0.0457 | 0.000355 | 0.000314 | 0.0158 | 0.000673 | 0.000776 | 0.000892
303.35 K | 0.000333 | 0.000587 | 0.00181 | 0.0465 | 0.000402 | 0.000354 | 0.0162 | 0.000731 | 0.000865 | 0.000961
308.25 K | 0.000367 | 0.000665 | 0.00192 | 0.0473 | 0.000457 | 0.000409 | 0.0167 | 0.000795 | 0.000929 | 0.00104
312.85 K | 0.000392 | 0.000722 | 0.0021 | 0.0481 | 0.000517 | 0.000459 | 0.0172 | 0.000898 | 0.000986 | 0.00115
317.95 K | 0.000425 | 0.000778 | 0.00244 | 0.0489 | 0.000572 | 0.000511 | 0.0181 | 0.000983 | 0.00105 | 0.00126
